Reference: ChEMBL document CHEMBL6182828, “Medicinal chemistry-based perspectives on thiophene and its derivatives: exploring structural insights to discover plausible druggable leads” (RSC Med Chem, 2025)
Converted amounts (≈) assume the structure as drawn.

Assays:
[1] = Half life in human at 0.7 mg/kg, po; conditions: in vivo
Rattus norvegicus [2] = assay: Anti-inflammatory activity against carrageenan-induced paw edema in Wistar rat assessed as inhibition of paw edema at 20 mg/kg, po by H and E staining based analysis relative to control; format: functional; parameters: scale not given: the % may be the effect or the level left
Rattus norvegicus [3] = assay: Anti-inflammatory activity against carrageenan-induced paw edema in Albino rat assessed as inhibition of paw edema at 50 mg/kg, po relative to control; format: functional; parameters: scale not given: the % may be the effect or the level left
MCF7 = assay: Cytotoxicity against human MCF7 cells assessed as reduction in cell viability; format: functional, cell-based
[4] = Half life of compound; format: physicochemical
Acetylcholinesterase [5] = molecular target: T1, Acetylcholinesterase (Homo sapiens, UniProt P22303); assay: Inhibition of AChE (unknown origin)
T1 sequence (P22303 whole entry): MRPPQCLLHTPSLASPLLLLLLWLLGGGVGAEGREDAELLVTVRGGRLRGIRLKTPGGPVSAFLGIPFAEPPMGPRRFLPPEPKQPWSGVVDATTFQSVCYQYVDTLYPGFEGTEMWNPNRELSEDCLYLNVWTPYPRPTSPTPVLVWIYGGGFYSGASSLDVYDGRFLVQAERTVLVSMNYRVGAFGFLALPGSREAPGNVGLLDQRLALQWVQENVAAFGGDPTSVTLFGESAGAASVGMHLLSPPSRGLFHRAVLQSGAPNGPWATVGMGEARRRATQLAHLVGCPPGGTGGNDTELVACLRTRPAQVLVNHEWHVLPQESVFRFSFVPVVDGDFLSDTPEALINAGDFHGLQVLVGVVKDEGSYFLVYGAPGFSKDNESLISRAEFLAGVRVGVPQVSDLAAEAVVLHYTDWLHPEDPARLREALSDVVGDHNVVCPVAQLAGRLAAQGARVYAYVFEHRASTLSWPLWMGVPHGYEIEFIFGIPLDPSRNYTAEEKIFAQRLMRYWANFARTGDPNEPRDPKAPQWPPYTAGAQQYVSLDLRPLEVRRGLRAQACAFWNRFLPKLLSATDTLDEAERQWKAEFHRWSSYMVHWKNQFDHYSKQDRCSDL

Cholinesterase = Cholinesterase (Homo sapiens, UniProt P06276); assay: Inhibition of BChE (unknown origin)
Cholinesterase, sequence (P06276 whole entry, the tested form may be a part): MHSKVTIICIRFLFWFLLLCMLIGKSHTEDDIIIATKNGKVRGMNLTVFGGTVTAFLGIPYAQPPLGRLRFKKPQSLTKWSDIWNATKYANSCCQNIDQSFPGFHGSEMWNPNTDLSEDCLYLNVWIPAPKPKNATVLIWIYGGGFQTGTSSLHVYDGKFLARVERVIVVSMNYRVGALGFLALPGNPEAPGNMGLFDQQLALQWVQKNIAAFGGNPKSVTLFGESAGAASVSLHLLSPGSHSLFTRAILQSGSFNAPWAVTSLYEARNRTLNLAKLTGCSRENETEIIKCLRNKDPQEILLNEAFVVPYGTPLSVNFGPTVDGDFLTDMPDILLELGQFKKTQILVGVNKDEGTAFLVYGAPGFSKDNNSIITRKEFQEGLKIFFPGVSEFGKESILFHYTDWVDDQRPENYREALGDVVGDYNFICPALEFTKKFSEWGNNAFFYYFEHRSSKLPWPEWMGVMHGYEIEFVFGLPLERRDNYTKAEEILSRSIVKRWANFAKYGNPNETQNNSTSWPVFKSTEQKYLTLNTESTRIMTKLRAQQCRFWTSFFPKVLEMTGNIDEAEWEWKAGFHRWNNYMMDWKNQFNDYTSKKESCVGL

Salmonella paratyphi = assay: […] activity against Salmonella enterica subsp. enterica serovar Paratyphi A assessed as zone of inhibition at 100 ug/ml by cup-plate agar diffusion method; format: functional; conditions: read-out: IZ
Bacillus subtilis [6] = assay: Antibacterial activity against Bacillus subtilis ATCC 6633 assessed as zone of inhibition; format: functional
Staphylococcus aureus [7] = assay: Antibacterial activity against Staphylococcus aureus assessed as zone of inhibition at 100 ug/ml by cup-plate agar diffusion method; format: functional; conditions: read-out: IZ
Aspergillus niger = assay: Antifungal activity against Aspergillus niger assessed as diameter of zone of inhibition at 100 ug/ml by cup-plate agar diffusion method; format: functional; conditions: read-out: IZ
Penicillium chrysogenum = assay: Antifungal activity against Penicillium chrysogenum assessed as diameter of zone of inhibition at 100 ug/ml by cup-plate agar diffusion method; format: functional; conditions: read-out: IZ
[8] = Half life in human at 6 mg/kg; format: ADME, organism-based; conditions: in vivo
OVCAR-8 = assay: Cytotoxicity against human OVCAR-8 cells assessed as reduction in cell growth incubated for 24 hrs by MTT assay; format: functional, cell-based; conditions: OVCAR-8, 24 h
SF-295 = assay: Cytotoxicity against human SF-295 cells assessed as reduction in cell growth incubated for 24 hrs by MTT assay; format: functional, cell-based; conditions: SF-295, 24 h
HCT-116 = assay: Cytotoxicity against human HCT-116 cells assessed as reduction in cell growth incubated for 24 hrs by MTT assay; format: functional, cell-based; conditions: HCT-116, 24 h
HL-60 = assay: Cytotoxicity against human HL-60 cells assessed as reduction in cell growth incubated for 24 hrs by MTT assay; format: functional, cell-based; conditions: HL-60, 24 h
[9] = Half life in po dosed human plasma; format: ADME, organism-based
[10] = molecular target: Amine oxidase [flavin-containing] B (Homo sapiens, UniProt P27338); assay: Inhibition of human recombinant MAO-B extracted from baculovirus infected in BTI-TN-5B1-4 insect cells incubated for 20 mins by Amplex Red reagent based fluorescence analysis; format: cell-based
Amine oxidase [flavin-containing] B, sequence (P27338 whole entry): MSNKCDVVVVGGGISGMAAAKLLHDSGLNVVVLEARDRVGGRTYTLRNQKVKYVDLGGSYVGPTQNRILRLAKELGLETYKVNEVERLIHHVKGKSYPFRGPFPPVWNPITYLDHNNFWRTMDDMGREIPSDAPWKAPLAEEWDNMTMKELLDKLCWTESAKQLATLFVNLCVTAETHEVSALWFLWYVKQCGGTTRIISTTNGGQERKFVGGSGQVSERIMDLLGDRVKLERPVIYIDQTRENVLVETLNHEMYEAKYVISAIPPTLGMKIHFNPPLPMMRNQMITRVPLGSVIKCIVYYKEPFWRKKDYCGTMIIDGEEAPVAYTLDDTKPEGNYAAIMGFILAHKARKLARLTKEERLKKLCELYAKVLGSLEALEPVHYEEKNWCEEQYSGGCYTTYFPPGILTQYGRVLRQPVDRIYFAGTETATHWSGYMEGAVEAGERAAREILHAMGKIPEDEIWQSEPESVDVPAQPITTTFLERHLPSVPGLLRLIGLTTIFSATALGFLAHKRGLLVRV

MIA PaCa-2 = assay: Cytotoxicity against human MIA PaCa-2 cells; format: functional, cell-based
[11] = Inhibition of EGFR2 (unknown origin); parameters: species or system Homo sapiens
A549 = assay: Growth inhibition of human A549 cells by SRB assay; format: functional
HepG2 = assay: Antiproliferative activity against human HepG2 cells assessed as reduction in cell growth measured for 96 hrs by Neutral red uptake assay; format: functional, cell-based; conditions: HepG2, 96 h
[12] = Half life in human at 15 mg/kg, po; format: ADME, organism-based; conditions: in vivo
[13] = Elimination half life in human at 0.8 mg/kg, sc; format: ADME, organism-based; conditions: in vivo, read-out: LambdaZ (converted)
[14] = Terminal half life in human plasma; format: ADME, cell-free; conditions: read-out: beta t1/2 (converted)
Acetylcholinesterase [15] = molecular target: T1, Acetylcholinesterase; assay: Inhibition of AChE (unknown origin) using acetylthiocholine iodide as substrate by Ellman's spectrophotometric analysis
SMMC-7721 = assay: cells; conditions: Homo sapiens, SMMC-7721, 72 h
Description: Antiproliferative activity against human SMMC-7721 cells assessed as reduction in cell viability measured for 72 hrs by MTT assay

Escherichia coli = assay: Antimicrobial activity against Escherichia coli assessed as diameter of zone of inhibition; format: functional
Streptococcus pneumoniae [16] = assay: Antimicrobial activity against Streptococcus pneumoniae assessed as reduction in cell growth by XTT assay; format: functional, organism-based
Staphylococcus aureus [17] = assay: Antimicrobial activity against Staphylococcus aureus assessed as reduction in cell growth by XTT assay; format: functional, organism-based
Beta-secretase 1 = Beta-secretase 1 (Homo sapiens, UniProt P56817); assay: Inhibition of human recombinant BACE1 expressed in HEK293 cells by FRET assay; format: cell-based
Beta-secretase 1, sequence (P56817 whole entry): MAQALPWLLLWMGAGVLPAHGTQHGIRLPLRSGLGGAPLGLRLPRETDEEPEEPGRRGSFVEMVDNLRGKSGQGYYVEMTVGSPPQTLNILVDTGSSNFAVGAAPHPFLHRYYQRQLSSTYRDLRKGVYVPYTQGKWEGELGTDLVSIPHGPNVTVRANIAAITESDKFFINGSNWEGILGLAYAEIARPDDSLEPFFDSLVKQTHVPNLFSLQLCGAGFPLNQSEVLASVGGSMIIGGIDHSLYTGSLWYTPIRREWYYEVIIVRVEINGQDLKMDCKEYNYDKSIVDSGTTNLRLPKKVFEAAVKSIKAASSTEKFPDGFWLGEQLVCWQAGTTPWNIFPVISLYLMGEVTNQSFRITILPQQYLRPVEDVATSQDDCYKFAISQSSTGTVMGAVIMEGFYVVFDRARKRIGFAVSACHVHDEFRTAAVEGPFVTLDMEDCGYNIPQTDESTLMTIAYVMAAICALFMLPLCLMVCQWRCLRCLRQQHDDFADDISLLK

clinical = conditions: human
[18] = Terminal half life in human at 2.5 mg/kg, po; format: ADME, organism-based; conditions: in vivo, read-out: beta t1/2 (converted)
[19] = Terminal half life in human; format: ADME; conditions: read-out: beta t1/2 (converted)
Streptococcus pneumoniae [20] = assay: Antimicrobial activity against Streptococcus pneumoniae assessed as diameter of zone of inhibition by agar diffusion method; format: functional
Bacillus subtilis [21] = assay: Antimicrobial activity against Bacillus subtilis assessed as diameter of zone of inhibition by agar diffusion method; format: functional

Compound COC(=O)[C@H](c1ccccc1Cl)N1CCc2sccc2C1 [CLOPIDOGREL] has a half-life [1] of 6 h.

With CC(=O)c1c(Nc2ccc(C)cc2)sc(-c2nc3ccccc3c(=O)n2-c2ccc(Cl)cc2)c1C the Activity (Rattus norvegicus [2]) was 48.94% and the Activity (Rattus norvegicus [3]) was 58.6%.

In the case of O=C1S/C(=C\c2cccc(Cl)c2Cl)C(=O)N1Cc1nnc(-c2cccs2)o1, the IC50 (MCF7) is reported as 4.83 µg/mL (≈ 11 µM).

For CCN[C@H]1C[C@H](C)S(=O)(=O)c2sc(S(N)(=O)=O)cc21 [DORZOLAMIDE], the t1/2 [4] was 4 months.

O=C(NNC(=S)Nc1ccccc1[N+](=O)[O-])c1sccc1Cl gave an IC50 (Acetylcholinesterase [5]) of 400 nM and an IC50 (Cholinesterase) of 1900 nM.

In the case of Cc1cc2ccc(O)cc2n(NC(=O)c2sc3cc(F)ccc3c2N)c1=O, the zone of inhibition at 100 µg/mL (Salmonella paratyphi) is reported as 22 mm, the “inhibition zone (IZ)” value (Bacillus subtilis [6]) is reported as 25 mm and the zone of inhibition at 100 µg/mL (Staphylococcus aureus [7]) is reported as 23 mm. It also gave a zone of inhibition at 100 µg/mL (Aspergillus niger) of 26 mm.

Work on NC1=C(C(=O)Nn2c(=O)cc(-c3ccccc3)c3ccc(O)cc32)SCC1 yielded a zone of inhibition at 100 µg/mL (Penicillium chrysogenum) of 27 mm.

CCN[C@H]1CN(CCCOC)S(=O)(=O)c2sc(S(N)(=O)=O)cc21 [BRINZOLAMIDE] gave a half-life [8] of 111 h.

Work on COc1cccc(/C=N/NC(=O)c2cccs2)c1O yielded an IC50 (OVCAR-8) of 820 nM, an IC50 (SF-295) of 820 nM and an IC50 (HCT-116) of 820 nM. The IC50 (HL-60) was 820 nM.

Compound CN1CCC(=C2c3ccccc3CC(=O)c3sccc32)CC1 [KETOTIFEN] has a half-life [9] of 3 h.

O=c1oc2cc(O)ccc2cc1-c1cc(Br)cs1 gave an IC50 [10] of 140 nM.

With CN1CCN(CC(=O)Nc2sc3c(c2C#N)CCC(C(C)(C)C)C3)CC1 (configuration not stated) the IC50 (MIA PaCa-2) was 13400 nM and the IC50 [11] was 680 nM.

CCOC(=O)c1c(/N=C/c2ccc(Br)cc2)sc2c1CCCC2 showed a GI50 (A549) of 8040 nM.

Compound COc1ccc(C2=NNC(=O)c3c(sc(C(N)=O)c3C)N2)cc1 has an IC50 (HepG2) of 4.37 µg/mL (≈ 13.2 µM).

With Cc1cc2c(s1)Nc1ccccc1N=C2N1CCN(C)CC1 [OLANZAPINE] the half-life [12] was 21 h.

NC(N)=NCCC[C@@H](N)C(=O)N[C@@H](CCCN=C(N)N)C(=O)N1CCC[C@H]1C(=O)N1C[C@H](O)C[C@H]1C(=O)NCC(=O)N[C@@H](Cc1cccs1)C(=O)N[C@@H](CO)C(=O)N1Cc2ccccc2C[C@@H]1C(=O)N1[C@H](C(=O)N[C@@H](CCCN=C(N)N)C(=O)O)C[C@@H]2CCCC[C@@H]21 [ICATIBANT] gave a half-life [13] of 1.4 h.

CCCN(CCc1cccs1)[C@H]1CCc2c(O)cccc2C1 [ROTIGOTINE] gave a half-life [14] of 7 h.

FC(F)(F)c1cccc(-c2cc(-c3cccs3)n(-c3ccc(Br)cc3)n2)c1 showed an IC50 (Acetylcholinesterase [15]) of 0.48 nM.

Compound O=C(Nc1ccsc1C(=O)N/N=C/c1ccc(F)cc1)c1ccc(Cl)cc1Cl has an IC50 (SMMC-7721) of 320 nM.

For NC(=S)N/N=C(\C=C\c1ccc(Cl)cc1Cl)c1cccs1, the “inhibition zone (IZ)” value (Escherichia coli) was 15 mm.

CCOC(=O)c1c(Nc2ccccc2)sc(Cc2ccc(-n3cnnn3)cc2)c1N gave an IC50 (Streptococcus pneumoniae [16]) of 9.83 µg/mL (≈ 23.4 µM) and an IC50 (Staphylococcus aureus [17]) of 7.62 µg/mL (≈ 18.1 µM).

In the case of COC(=O)c1cc(C)cc2sc3cccc(OC)c3c12, the IC50 (Beta-secretase 1) is reported as 600 nM.

For Clc1ccccc1CN1CCc2sccc2C1 [TICLOPIDINE], the half-life (clinical) was 7.9 h.

For CCCCc1ncc(/C=C(\Cc2cccs2)C(=O)O)n1Cc1ccc(C(=O)O)cc1 [EPROSARTAN], the half-life [18] was 5 h.

O=C(NC[C@H]1CN(c2ccc(N3CCOCC3=O)cc2)C(=O)O1)c1ccc(Cl)s1 [RIVAROXABAN] gave a half-life [19] of 5 h.

For CCOC(=O)c1c(Nc2ccccc2)sc(C2=CN3NCC=C3N2)c1-c1ccccc1, the “inhibition zone (IZ)” value (Streptococcus pneumoniae [20]) was 12.3 mm and the “inhibition zone (IZ)” value (Bacillus subtilis [21]) was 12.7 mm.
